In the supplement of paper PMC10307832:

Assays:
Assay in all cases: relative viability (nuclei count vs DMSO), 5 days (fraction); higher = more cells survive
COR-L 105 = system: COR-L 105
Procedure, shortened: (§1)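 Medians of duplicate plates are given as relative viability. That measure is the nuclei count in treated wells divided by the count in vehicle wells. Counts were taken on 4× images of lung cancer cell lines in 1536-well plates, 5 days after pin-tool dosing the day after seeding with one drug alone or a fixed anchor-drug dose plus five library-drug doses (not always all listed) in √10 steps.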

LCLC-103H = system: LCLC-103H
Procedure, shortened: as §1

LK-2 = system: LK-2
Procedure, shortened: as §1

NCI-H1355 = system: NCI-H1355
Procedure, shortened: as §1

NCI-H1623 = system: NCI-H1623
Procedure, shortened: as §1

NCI-H1648 = system: NCI-H1648
Procedure, shortened: as §1

NCI-H520 = system: NCI-H520
Procedure, shortened: as §1

NCI-H522 = system: NCI-H522
Procedure, shortened: as §1

Structure (SMILES)	relative viability (COR-L 105; first compound 0.01 µM)	relative viability (COR-L 105; first compound 0.03162 µM)	relative viability (COR-L 105; first compound 0.1 µM)	relative viability (COR-L 105; first compound 0.3162 µM)	relative viability (COR-L 105; first compound 1 µM)	relative viability (LCLC-103H; first compound 0.01 µM)	relative viability (LCLC-103H; first compound 0.03162 µM)	relative viability (LCLC-103H; first compound 0.1 µM)	relative viability (LCLC-103H; first compound 0.3162 µM)	relative viability (LCLC-103H; first compound 1 µM)	relative viability (LK-2; first compound 0.01 µM)	relative viability (LK-2; first compound 0.03162 µM)	relative viability (LK-2; first compound 0.1 µM)	relative viability (LK-2; first compound 0.3162 µM)	relative viability (LK-2; first compound 1 µM)	relative viability (NCI-H1355; first compound 0.01 µM)	relative viability (NCI-H1355; first compound 0.03162 µM)	relative viability (NCI-H1355; first compound 0.1 µM)	relative viability (NCI-H1355; first compound 0.3162 µM)	relative viability (NCI-H1355; first compound 1 µM)	relative viability (NCI-H1623; first compound 0.01 µM)	relative viability (NCI-H1623; first compound 0.03162 µM)	relative viability (NCI-H1623; first compound 0.1 µM)	relative viability (NCI-H1623; first compound 0.3162 µM)	relative viability (NCI-H1623; first compound 1 µM)	relative viability (NCI-H1648; first compound 0.01 µM)	relative viability (NCI-H1648; first compound 0.03162 µM)	relative viability (NCI-H1648; first compound 0.1 µM)	relative viability (NCI-H1648; first compound 0.3162 µM)	relative viability (NCI-H1648; first compound 1 µM)	relative viability (NCI-H520; first compound 0.01 µM)	relative viability (NCI-H520; first compound 0.03162 µM)	relative viability (NCI-H520; first compound 0.1 µM)	relative viability (NCI-H520; first compound 0.3162 µM)	relative viability (NCI-H520; first compound 1 µM)	relative viability (NCI-H522; first compound 0.01 µM)	relative viability (NCI-H522; first compound 0.03162 µM)	relative viability (NCI-H522; first compound 0.1 µM)	relative viability (NCI-H522; first compound 0.3162 µM)	relative viability (NCI-H522; first compound 1 µM)
CCN(CC)CCCCNc1ncc2cc(-c3cc(OC)cc(OC)c3)c(NC(=O)NC(C)(C)C)nc2n1 + COc1cccc2cc(-c3nc([C@H]4CC[C@H](C(=O)O)CC4)n4ncnc(N)c34)[nH]c12 [OSI-027] (partner 0.5 µM)	0.704	0.591	0.749	0.826	0.417	0.455	0.482	0.456	0.386	0.339	0.193	0.192	0.163	0.165	0.196	0.405	0.404	0.417	0.45	0.367	0.419	0.385	0.381	0.469	0.383	0.311	0.228	0.26	0.24	0.243	0.251	0.228	0.259	0.192	0.155	0.639	0.625	0.676	0.674	0.698
CCN(CC)CCCCNc1ncc2cc(-c3cc(OC)cc(OC)c3)c(NC(=O)NC(C)(C)C)nc2n1 + Cc1cc(Nc2cc(N3CCN(C)CC3)nc(Sc3ccc(NC(=O)C4CC4)cc3)n2)n[nH]1 [Tozasertib] (partner 0.1 µM)	0.366	0.345	0.374	0.354	0.354	0.588	0.486	0.54	0.452	0.31	0.168	0.196	0.184	0.213	0.159	0.547	0.559	0.52	0.531	0.411	0.67	0.454	0.43	0.513	0.416	0.657	0.559	0.406	0.4	0.407	0.383	0.452	0.486	0.388	0.261	0.529	0.604	0.575	0.49	0.534
